In patent US11772141B1, “Method for targeted regulation of soil microbes to synchronize heavy metal/metalloid transformation and greenhouse gas emission reduction and use” (priority 2022, dated 2023):

Tests used:
[1] = system: mcrA gene; settings: soil control 1.5*10^6
Method: Construction of the plasmid standard was performed by ligating a vector pUC19 with a PCR product of arsM or mcrA gene. After a single clone was picked, plasmid DNA was extracted, the DNA concentration was measured with Qubit 3.0 Fluorometer, the gene copy number was calculated, and then the EASY dilution solution was diluted to 10^2-10^8(copy number per μL) to obtain a Standard curve.
mcrA amplification reaction program: at 95° C. for 10 min; at 95° C. for 15 s, at 58° C. for 30 s, and at 72° C. for 30 s, 40 cycles; and prolonging at 72° C. for 2 min.

[2] = system: soil microbes; settings: Met 1 mM, Met:Fat 1:10 in combinations
Method: 5 grams of arsenic-contaminated rice field soils taken from Hunan Province, China was placed into a 20 mL glass sample tube, 2.5 mL of sterilized culture medium was added, and then the glass sample tube was placed in an anaerobic glove box for cultivation. The culture medium was composed of 10 mM NH4Cl, 5 mM NaHCO3, 1 mM KH2PO4, 0.5 mM MgCl2, 0.5 CaCl2, 1 mL of L^−1 vitamin and 1 mL/L of trace elements. […] After addition of the Met and the Fat and after further reaction for 60 days, headspace gas was collected and measured by GC-TCD, a soil suspension was extracted, and ammonium dihydrogen phosphate was added to desorb adsorbed methyl arsenic. After the resulted soil suspension passed through a 0.22-micron membrane, methyl arsenic, including monomethylarsenic, dimethylarsenic and trimethylarsenic oxides, in a soil solution was measured by HPLC-ICPMS. […]
After further anaerobic culture for 60 days, headspace gas was collected and measured by GC-TCD, a soil suspension was extracted, and ammonium dihydrogen phosphate was added to desorb adsorbed methyl arsenic. After the resulted soil suspension passed through a 0.22-micron membrane, the methyl arsenic in the soil solution was measured by HPLC-ICPMS.

[3] = system: arsM gene; settings: soil control 950
Method: Construction of the plasmid standard was performed by ligating a vector pUC19 with a PCR product of arsM or mcrA gene. After a single clone was picked, plasmid DNA was extracted, the DNA concentration was measured with Qubit 3.0 Fluorometer, the gene copy number was calculated, and then the EASY dilution solution was diluted to 10^2-10^8(copy number per μL) to obtain a Standard curve. […] Information and reaction procedures of the primers used for amplification of the arsM and mcrA genes were as follows:
arsM amplification reaction program: at 95° C. for 10 min; at 95° C. for 30 s, at 60° C. for 45 s, and at 72° C. for 1 min, 40 cycles; and prolonging at 72° C. for 10 min;

In the case of CSCC[C@H](N)C(=O)O [methionine], the “transcript copy number of mcrA” value [1] was 2.0*10^7 copies per g of soils, the “production of methyl arsenic” value ([2]; 60 days anaerobic reaction) was 0.1 µM and the methane emission ([2]; 60 days, control group 5.5 mM) was 18.7 mM. The “transcript copy number of arsM” value [3] was 1200 copies per g of soils.
